The results in this text go back to PubChem BioAssay AID200 (DTP/NCI, 2004).

The experiment relates to B6C3F1 mice, B16 melanoma ip, median survival T/C. Description: NCI In Vivo Anticancer Drug Screen. Data for tumor model B16 Melanoma (intraperitoneal) in B6C3F1 mice. To be noted: endpoint: median survival time, higher = longer survival. The method, boiled down: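 Mice bearing transplanted tumor were dosed with compound or vehicle, and survival was recorded. Activity is expressed as the treated-group measurement (T) divided by the vehicle control measurement (C).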

Setting [1] is: dose: 100.0 mg/kg/injection, schedule: Q01DX009 (ip), vehicle: saline with Tween-80.
Where [2] appears, read: dose: 200.0 mg/kg/injection, schedule: Q01DX009 (ip), vehicle: saline with Tween-80.
[3] abbreviates: dose: 400.0 mg/kg/injection, schedule: Q01DX009 (ip), vehicle: saline with Tween-80.
Setting [4] is: dose: 12.5 mg/kg/injection, schedule: Q01DX009 (ip), vehicle: Klucel (hydroxypropylcellulose) (HPC).
Setting [5] is: dose: 25.0 mg/kg/injection, schedule: Q01DX009 (ip), vehicle: Klucel (hydroxypropylcellulose) (HPC).
[6] abbreviates: dose: 50.0 mg/kg/injection, schedule: Q01DX009 (ip), vehicle: Klucel (hydroxypropylcellulose) (HPC).
Where [7] appears, read: dose: 100.0 mg/kg/injection, schedule: Q01DX009 (ip), vehicle: Klucel (hydroxypropylcellulose) (HPC).
The mark [8] stands for this setting: dose: 200.0 mg/kg/injection, schedule: Q01DX009 (ip), vehicle: Klucel (hydroxypropylcellulose) (HPC).
[9] abbreviates: dose: 50.0 mg/kg/injection, schedule: Q01DX009 (ip), vehicle: saline.
Setting [10] is: dose: 100.0 mg/kg/injection, schedule: Q01DX009 (ip), vehicle: saline.

“And” between values parts separate entries of the source, which are not always exact repeats. Equal values may be shown once. Inconclusive results and toxic doses are left out.

As for `N#CCCN(C(=S)Nc1cccc(C(F)(F)F)c1)C1CCCCC1`, the T/C (dose: 12.5 mg/kg/injection, schedule: Q01DX009 (ip), vehicle: suspension in saline) was 102 % of control; the T/C (dose: 25.0 mg/kg/injection, schedule: Q01DX009 (ip), vehicle: suspension in saline) is 100 % of control; the T/C (dose: 50.0 mg/kg/injection, schedule: Q01DX009 (ip), vehicle: suspension in saline) is 101 % of control; the T/C under setting [1] is 113 % of control; the T/C (dose: 100.0 mg/kg/injection, schedule: Q01DX009 (ip), vehicle: suspension in saline) is 107 % of control; the T/C under setting [2] was 94 % of control. For the same compound, the T/C by setting is: (dose: 200.0 mg/kg/injection, schedule: Q01DX009 (ip), vehicle: suspension in saline) 113 % of control; under setting [3], 89 % of control; (dose: 400.0 mg/kg/injection, schedule: Q01DX009 (ip), vehicle: suspension in saline) 103 % of control.

For `CC(=O)N(C)C`, the T/C was 89 % of control (dose: 122.5 mg/kg/injection, schedule: Q01DX009 (ip), vehicle: saline); 95 % of control (dose: 225.0 mg/kg/injection, schedule: Q01DX009 (ip), vehicle: saline); 95 % of control (dose: 450.0 mg/kg/injection, schedule: Q01DX009 (ip), vehicle: saline); 105 % of control (dose: 900.0 mg/kg/injection, schedule: Q01DX009 (ip), vehicle: saline); 114 % of control (dose: 1800.0 mg/kg/injection, schedule: Q01DX009 (ip), vehicle: saline).

With `COc1cc2c(c(OC)c1OC)-c1c(cc3c(c1OC)OCO3)CC(C)C(C)(O)C2OC(=O)c1ccccc1` (stereo not drawn), the T/C is, setting by setting: (dose: 25.0 mg/kg/injection, schedule: Q01DX009 (ip), vehicle: saline + Tween-80 + alcohol) 107 % of control; (dose: 50.0 mg/kg/injection, schedule: Q01DX009 (ip), vehicle: saline + Tween-80 + alcohol) 98 % of control; (dose: 100.0 mg/kg/injection, schedule: Q01DX009 (ip), vehicle: saline + Tween-80 + alcohol) 115 % of control; (dose: 200.0 mg/kg/injection, schedule: Q01DX009 (ip), vehicle: saline + Tween-80 + alcohol) 110 % of control.

Take `N#CCCCCCCCCCCC(=O)O`: the T/C is, setting by setting: under setting [1], 93 % of control; under setting [2], 96 % of control; under setting [3], 99 % of control.

In the case of `CC(C)(C)OC(=O)N1CCCC1C(=O)O` (stereo not drawn), the T/C was 100 % of control (dose: 22.5 mg/kg/injection, schedule: Q01DX009 (ip), vehicle: Klucel (hydroxypropylcellulose) (HPC)); 102 % of control (dose: 45.0 mg/kg/injection, schedule: Q01DX009 (ip), vehicle: Klucel (hydroxypropylcellulose) (HPC)); 90 % of control (dose: 90.0 mg/kg/injection, schedule: Q01DX009 (ip), vehicle: Klucel (hydroxypropylcellulose) (HPC)).

For `[Cl][Pt][Cl].[NH-]C(CO)C(=O)O` (stereo not drawn), the T/C is, setting by setting: (dose: 3.13 mg/kg/injection, schedule: Q01DX009 (ip), vehicle: water) 98 % of control; (dose: 6.25 mg/kg/injection, schedule: Q01DX009 (ip), vehicle: water) 106 % of control; (dose: 12.5 mg/kg/injection, schedule: Q01DX009 (ip), vehicle: water) 116 % of control and 107 % of control; (dose: 25.0 mg/kg/injection, schedule: Q01DX009 (ip), vehicle: water) 120 % of control; (dose: 50.0 mg/kg/injection, schedule: Q01DX009 (ip), vehicle: water) 114 % of control.

`N=c1ccn2c(n1)OC1C(O)C(CO)OC12` (stereo not drawn): the T/C (dose: 18.75 mg/kg/injection, schedule: Q01DX009 (ip), vehicle: saline) is 100 % of control; the T/C (dose: 37.5 mg/kg/injection, schedule: Q01DX009 (ip), vehicle: saline) is 118 % of control and 104 % of control; the T/C (dose: 75.0 mg/kg/injection, schedule: Q01DX009 (ip), vehicle: saline) is 100 % of control and 106 % of control (2×); the T/C (dose: 150.0 mg/kg/injection, schedule: Q01DX009 (ip), vehicle: saline) was 114 % of control and 106 % of control (2×); the T/C (dose: 300.0 mg/kg/injection, schedule: Q01DX009 (ip), vehicle: saline) was 112 % of control and 121 % of control and 106 % of control.

For `CN(C)CCOc1ccc2c(c1)C/C(=C/c1ncc([N+](=O)[O-])n1C)C2=O`, the T/C is 100 % of control (dose: 6.25 mg/kg/injection, schedule: Q01DX009 (ip), vehicle: saline with Tween-80); 104 % of control (dose: 12.5 mg/kg/injection, schedule: Q01DX009 (ip), vehicle: saline with Tween-80); 100 % of control (dose: 25.0 mg/kg/injection, schedule: Q01DX009 (ip), vehicle: saline with Tween-80); 111 % of control (dose: 50.0 mg/kg/injection, schedule: Q01DX009 (ip), vehicle: saline with Tween-80).

With `CC(C)N1C(=O)N(Cl)C2C1N(Cl)C(=O)N2Cl` (stereo not drawn), the T/C is 108 % of control (dose: 1.5 mg/kg/injection, schedule: Q01DX009 (ip), vehicle: saline with Tween-80); 104 % of control (dose: 3.0 mg/kg/injection, schedule: Q01DX009 (ip), vehicle: saline with Tween-80); 98 % of control (dose: 6.0 mg/kg/injection, schedule: Q01DX009 (ip), vehicle: saline with Tween-80); 94 % of control (dose: 12.0 mg/kg/injection, schedule: Q01DX009 (ip), vehicle: saline with Tween-80); 108 % of control (dose: 24.0 mg/kg/injection, schedule: Q01DX009 (ip), vehicle: saline with Tween-80).

`C=C(NC(=O)C(=C)NC(=O)c1csc(C2=NC3c4csc(n4)C4NC(=O)c5csc(n5)C(C(C)(O)C(C)O)NC(=O)C5CSC(=N5)/C(=C/C)NC(=O)C(C(C)O)NC(=O)c5csc(n5)C3(CC2)NC(=O)C(C)NC(=O)C(=C)NC(=O)C(C)NC(=O)C(C(C)CC)NC2C=Cc3c(C(C)O)cc(nc3C2O)C(=O)OC4C)n1)C(N)=O` (stereo not drawn): the T/C under setting [4] is 116 % of control; the T/C under setting [5] was 104 % of control; the T/C under setting [6] was 105 % of control; the T/C under setting [7] is 107 % of control; the T/C under setting [8] was 96 % of control; the T/C (dose: 400.0 mg/kg/injection, schedule: Q01DX009 (ip), vehicle: Klucel (hydroxypropylcellulose) (HPC)) was 99 % of control.

`CN(C)N=Nc1cccc(C(N)=O)c1`: the T/C by setting is: under setting [9], 119 % of control; under setting [10], 67 % of control.

Take `COc1cccc2c1C(=O)c1c(O)c3c(c(O)c1C2=O)C[C@@](O)(C(C)=O)C[C@@H]3OC1CC(N)C(O)C(C)O1` (stereo partly drawn): the T/C was 151 % of control (dose: 0.12 mg/kg/injection, schedule: Q01DX009 (ip), vehicle: water); 171 % of control (dose: 0.25 mg/kg/injection, schedule: Q01DX009 (ip), vehicle: water); 174 % of control and 186 % of control (dose: 0.5 mg/kg/injection, schedule: Q01DX009 (ip), vehicle: water); 154 % of control and 285 % of control (dose: 1.0 mg/kg/injection, schedule: Q01DX009 (ip), vehicle: water); 187 % of control (dose: 1.5 mg/kg/injection, schedule: Q01DX001 (ip), vehicle: water); 242 % of control and 96 % of control (dose: 2.0 mg/kg/injection, schedule: Q01DX009 (ip), vehicle: water). The T/C by setting is: (dose: 3.0 mg/kg/injection, schedule: Q01DX001 (ip), vehicle: water) 218 % of control; (dose: 6.0 mg/kg/injection, schedule: Q01DX001 (ip), vehicle: water) 122 % of control.

On to `CN(C)C=O`, for which the T/C is 99 % of control (dose: 25.0 mg/kg/injection, schedule: Q01DX009 (ip), vehicle: saline); 112 % of control and 100 % of control under setting [9]; 88 % of control and 96 % of control under setting [10]; 86 % of control and 93 % of control (dose: 200.0 mg/kg/injection, schedule: Q01DX009 (ip), vehicle: saline); 122 % of control and 98 % of control (dose: 400.0 mg/kg/injection, schedule: Q01DX009 (ip), vehicle: saline); 108 % of control and 122 % of control (dose: 800.0 mg/kg/injection, schedule: Q01DX009 (ip), vehicle: saline). The T/C (dose: 1600.0 mg/kg/injection, schedule: Q01DX009 (ip), vehicle: saline) was 116 % of control.

As to `CC(C)NC(=O)N(CCCCBr)N=O`, the T/C reads like this: (dose: 6.25 mg/kg/injection, schedule: Q01DX009 (ip), vehicle: Klucel (hydroxypropylcellulose) (HPC)) 98 % of control; (dose: 12.0 mg/kg/injection, schedule: Q01DX009 (ip), vehicle: Klucel (hydroxypropylcellulose) (HPC)) 118 % of control; under setting [4], 98 % of control and 102 % of control; under setting [5], 99 % of control and 102 % of control; under setting [6], 116 % of control and 106 % of control; under setting [7], 88 % of control and 96 % of control. Also, the T/C under setting [8] was 102 % of control.
